Common to all, as to format: cell-based
One assay has as its target T1, S1P1 (Homo sapiens, UniProt P21453).
T1 construct: expressed in transfected cells
As to the kind of experiment: Calcium mobilization assay, CHO cells expressing S1P1. From the text:
(§1) Human S1P1 (GenBank™ accession number M31210) and S1P3 (GenBank™ accession number X83864) cDNA containing the myc sequence in front to the human S1P1 and S1P3 sequences are inserted in the pcDNA 3.1 vector. The vectors are sequenced to completion to confirm the correctness of the construct. The human S1P2 (GI: 4090955, TREMBL: 0195136) is cloned by a PCR based method. Lung cDNA (marathon cDNA) is obtained (BD Biosciences Chontech, Palo Alto, Calif. 94303, USA). […] The amplified product of around 1100 bp is analyzed by standard agarose gel-electrophoresis. […]
(§2) CHO cells are plated in black Costar plate (96 or 384 well, 50,000 cells or 12,500 cells, respectively) in a MEM with FCS and cultured for 20-24 h at 37° C. in a CO2 incubator. […] After measuring the baseline for 40 sec, the agonist in HBSS is added and the fluorescence is measured at intervals of 2 sec for 3 to 5 min. […]
(§3) The compounds mentioned in this application are tested for specificity, e.g. the activity they have in the parental cell line prior transformation with the S1P4 cDNA and for selectivity on CHO cells lines transformed with the S1P1, S1P2, S1P3, and S1P5. […] For example, S1P4 specific and selective compounds may have an EC50 (apparent EC50) measured at S1P4 that is 10×, preferably 100× lower that that measured in wild type CHO cells or In cell expressing any of the other four S1P receptors.

The target of a further assay is T2, S1P2 (Homo sapiens, UniProt O95136).
T2 construct: expressed in transfected cells
T2 sequence (O95136 whole entry): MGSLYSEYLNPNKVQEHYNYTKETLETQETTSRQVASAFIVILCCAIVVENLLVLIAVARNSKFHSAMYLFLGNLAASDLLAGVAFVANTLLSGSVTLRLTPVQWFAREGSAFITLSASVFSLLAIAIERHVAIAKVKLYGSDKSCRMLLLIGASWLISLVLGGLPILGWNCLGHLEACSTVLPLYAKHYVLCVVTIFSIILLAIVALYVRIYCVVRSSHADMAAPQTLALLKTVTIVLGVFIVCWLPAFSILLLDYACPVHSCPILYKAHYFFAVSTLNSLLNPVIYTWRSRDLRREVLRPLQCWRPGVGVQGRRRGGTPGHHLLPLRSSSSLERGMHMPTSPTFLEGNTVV
The experiment in a line: Calcium mobilization assay, CHO cells expressing S1P2.
From the text: as §1, §2, §3

A further assay deals with T3, S1P5 (Homo sapiens, UniProt Q9H228).
T3 construct: expressed in transfected cells
T3 sequence (Q9H228 whole entry): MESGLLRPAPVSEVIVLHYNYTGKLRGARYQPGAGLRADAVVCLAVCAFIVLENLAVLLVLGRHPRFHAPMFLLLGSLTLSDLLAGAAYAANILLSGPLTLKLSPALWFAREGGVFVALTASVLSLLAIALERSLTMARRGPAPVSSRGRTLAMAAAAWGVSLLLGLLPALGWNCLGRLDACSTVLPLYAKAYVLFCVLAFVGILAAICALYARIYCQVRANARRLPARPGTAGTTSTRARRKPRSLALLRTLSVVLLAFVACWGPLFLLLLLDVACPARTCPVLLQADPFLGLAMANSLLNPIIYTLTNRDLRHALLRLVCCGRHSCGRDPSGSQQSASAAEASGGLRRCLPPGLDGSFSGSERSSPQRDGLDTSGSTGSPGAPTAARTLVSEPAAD
The experiment in a line: Calcium mobilization assay, CHO cells expressing S1P5.
From the text: The human S1P5 (GI: 30171332 or GenBank™ accession number AY262689, TREMBL: Q9H228) is cloned by a PCR based method. Lung and spleen cDNA (marathon cDNA) is obtained from BD Biosciences Chlontech (BD Biosciences Chlontech, Palo Alto, Calif. 94303, USA); genomic DNA is isolated from HeLa cells using standard procedures. Following oligonucleotides are used for the PCR reaction: forward primer CACCATGGAGTCGGGGCTGCTGCG (−4 to 20, GenBank™ accession number AY262689) and reverse primer 5′-TCAGTCTGCAGCCGGTTCTGATACCAGAGTC (1197 to 1131, AY262689), the initiation of the translation (ATG) and the stop codon are underlined. […] The amplified product of around 1100 bp is analyzed by standard agarose gel-electrophoresis. […]
as §2

This is an account of results in patent US7754896B2, “Indol-alanine derivatives as selective S1P4-agonists” (Novartis AG, priority 2004, dated 2010).

Each structure is given as a SMILES string.

T1 sequence (P21453 whole entry): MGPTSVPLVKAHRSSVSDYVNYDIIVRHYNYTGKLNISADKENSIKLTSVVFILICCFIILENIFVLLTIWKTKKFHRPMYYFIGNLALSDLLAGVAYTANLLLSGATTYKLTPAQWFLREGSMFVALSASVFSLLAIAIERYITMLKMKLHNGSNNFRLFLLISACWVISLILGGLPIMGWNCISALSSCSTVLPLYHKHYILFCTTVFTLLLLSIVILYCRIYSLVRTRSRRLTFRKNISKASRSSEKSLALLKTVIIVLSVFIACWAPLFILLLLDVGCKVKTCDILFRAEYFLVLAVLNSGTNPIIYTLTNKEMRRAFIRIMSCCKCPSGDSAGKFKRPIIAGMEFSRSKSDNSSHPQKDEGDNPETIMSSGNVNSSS

On to `NC(CNC(=O)c1cc2c(-c3ccccc3Cc3ccccc3)cccc2[nH]1)C(=O)O` (stereo not drawn) [Example 2], for which the EC50 at S1P1 is greater than 6 µM; at S1P2 it was greater than 6 µM; at S1P5, 2.4 µM.
